From article PMC2606674, “Metabolism of no-carrier-added 2-[^18F]fluoro-L-tyrosine in rats” (BMC Medical Physics, 2008)
Like-named read-outs stand apart in the source and are kept apart here.

Tests used:
cerebral proteins [1] = system: cerebral proteins; set-up: method as in PMID 2787848; conditions: mouse cortex; cited from earlier work
cerebral proteins [2] = assay: Incorporation into proteins (TCA precipitation of brain regions) in rats; type: in vivo, rat
Description: Chronic cannulations of rats (male, Sprague Dawley, 180–250 g) were performed in the abdominal aorta and in the vena cava under general anaesthesia (ketamine 35 mg/kg and medetomidin 0.35 mg/kg) following the procedure described by Lestage [14]. The animals were allowed to recover for a minimum of 4 days before being used for metabolism studies. Most of them were injected with the tracer within the first week after surgery. Some of them were kept up to 4 weeks before injection. Twenty hours before the injection of the tracer, the food was removed from the cage. The arterial line was used for blood sampling and the other for i.v. injection of the tracer. The two lines were flushed with saline a few minutes before use in order to check potency. 14 rats (230–410 g) were injected with 20–325 MBq of n-c-a 2-[^18F]Tyr. The tracer was delivered as a bolus of maximum volume 0.75 ml in 15 s. Samples of blood were obtained via the arterial cannula during the first minutes after the injection and at different times (15, 30, 45, 60 and/or 90 minutes) thereafter. The line was flushed with saline between each sample to avoid any loss of potency and to ensure the homogeneity of the next sample. The animals (n = number of rats) were sacrificed after 30 (n = 2), 60 (n = 5), 90 (n = 3) or 120 (n = 4) minutes. After the final time point, samples of blood were taken and the major organs were dissected. The brain was dissected to obtain striatum, cortex and cerebellum.
Trichloroacetic acid (TCA) was used to precipitate the proteins from biological samples in order to assay the radioactive content associated with proteins and to perform a chromatographic analysis of the radioactive compounds in solution in the supernatant after centrifugation. The solution used for the precipitation was Na2S2O5 100 mg, NaEDTA.2H2O 10 mg, TCA 20 g, dissolved in water up to 100 ml.
Radioactivity was measured in weighed fractions of plasma. For intermediate and final plasma samples, proteins were precipitated with TCA solution and separated by centrifugation (5°C, 5 minutes, 8000 RPM) before counting. The supernatant was analysed by HPLC. Radioactivity was measured in the organ samples and in one half of the three dissected parts of the brain. The second halves were sonicated with water (Sonics & Materials inc., Vibracell VXC-400). The proteins were precipitated with TCA solution and separated by centrifugation (5°C, 5 minutes, 8000 RPM) before counting. The supernatant was analysed by HPLC.

[3] = Biodistribution of radioactivity after i.v. injection in awake rats; type: in vivo, rat
Description: All animal experiments were approved by the Ethical Committee at our institution. Chronic cannulations of rats (male, Sprague Dawley, 180–250 g) were performed in the abdominal aorta and in the vena cava under general anaesthesia (ketamine 35 mg/kg and medetomidin 0.35 mg/kg) following the procedure described by Lestage. The animals were allowed to recover for a minimum of 4 days before being used for metabolism studies. Most of them were injected with the tracer within the first week after surgery. Some of them were kept up to 4 weeks before injection. Twenty hours before the injection of the tracer, the food was removed from the cage. The arterial line was used for blood sampling and the other for i.v. injection of the tracer. The two lines were flushed with saline a few minutes before use in order to check potency. 14 rats (230–410 g) were injected with 20–325 MBq of n-c-a 2-[^18F]Tyr. The tracer was delivered as a bolus of maximum volume 0.75 ml in 15 s. […]
Radioactivity was measured in weighed fractions of plasma. […] The supernatant was analysed by HPLC. Radioactivity was measured in the organ samples and in one half of the three dissected parts of the brain. […] The supernatant was analysed by HPLC.
Radioactivity measurements of the biological samples and of the fractions collected during HPLC were performed with a NaI counter (Cobra II autogamma, Packard).

[4] = set-up: method as in PMID 2787848; conditions: cited from earlier work

N[C@@H](Cc1ccc(O)cc1[18F])C(=O)O [2-[^18F]Tyr, 2-[^18F]fluoro-L-tyrosine]
radioactivity associated with proteins, percentage of the total activity in the tissue (cerebral proteins [1]): 84%
radioactivity associated with proteins, percentage of the total activity in the tissue (cerebral proteins [2]; rat cerebellum, 60 minutes): 84%
radioactivity associated with proteins, percentage of the total activity in the tissue (cerebral proteins [2]; rat cortex, 60 minutes): 85%
radioactivity associated with proteins, percentage of the total activity in the tissue (cerebral proteins [2]; rat striatum, 60 min): 66%
incorporation into proteins, percentage of the total activity (cerebral proteins [2]; rats, non dopaminergic rich regions, 120 minutes): ~90%
absolute uptake into rat brain tissue ([3]; awake rats, i.v. bolus, n-c-a tracer): ~ 0.15 %IA/g
passage of the blood-brain-barrier ([3]; rats, brain uptake already high at 30 minutes post injection): rapidly passes the blood-brain-barrier
absolute uptake into brain tissue, mice ([4]; at 40 min): ~ 1.3 %IA/g
absolute uptake into brain tissue, mice ([4]; at 60 min): ~ 2 %IA/g
